In article PMC7838189, “Natural podophyllotoxin analog 4DPG attenuates EMT and colorectal cancer progression via activation of checkpoint kinase 2” (Cell Death Discovery, 2021):
“And” between values parts separate entries of the source, which are not always exact repeats. Equal entries are not always repeated.

Key:
[1] = system: SW-620/5-FU-R cells; test: Immunocytochemistry of Vimentin; assay type: cell-based; details: 48 h
Text: 4DPG, a podophyllotoxin class of natural product anticancer compound (Supplementary Fig. S2A) has been recently described by our research group for its potent antitumor and anti-metastatic properties against aggressive cancers[31],[32]. Further, 4DPG augments phosphorylation and activation of Chk2 (Thr68) leading to suppression of EMT and invasiveness of p53-defective cancer cells. To investigate the effect of 4DPG on phosphorylation and expression levels of Chk2 in HCT-116/5-FU-R, SW-620/5-FU-R, and HT-29/5-FU-R cells, we treated these cells for 48 h with increasing concentrations of the compound, and whole-cell lysates were subjected to western blotting analysis. […] To determine the effect of 4DPG on the invasion abilities of these 5-FU-R cells, we performed in situ fluorescent gelatin degradation assay following our pre-standardized protocol[31],[37]. In physiological conditions, this assay mimics the extracellular matrix degradation by aggressive tumor cells undergoing invasion–metastasis process.
(§1) To examine whether 4DPG-mediated repression of Vimentin and invasiveness is a Chk2-dependent process, we performed genetic silencing of endogenous Chk2 in the 5-FU-R cells using target-specific SiRNAs.
(§2) Fig. 3 Chk2-dependent role of 4DPG in modulating p53 and repressing Vimentin expression in 5-FU-R cells. A Immunocytochemistry results showing the Vimentin expression level in SW-620/5-FU-R cells treated/transfected with scramble, SiChk2, scramble plus 4DPG, SiChk2 plus 4DPG, vehicle, PV1019, 4DPG, and PV1019 plus 4DPG for 48 h. Scale bars: 50 µm. […] C Matrigel invasion assay results showing invaded HCT-116/5-FU-R and SW-620/5-FU-R cells following 48 h of transient transfection with GFP and GFP-Chk2 plasmid construct. Scale bars: 50 µm. D Quantification of the number of invaded cells per field from the above experimental conditions. n = 3, error bars, mean ± SD; *P < 0.05, ***P < 0.001. E Immunocytochemistry results displaying Vimentin expression levels in HCT-116/5-FU-R and SW-620/5-FU-R cells after 48 h of transient transfection with pCDNA3 and/or HA-Chk2 plasmid construct. Scale bars: 50 µm. F Immunoprecipitation with Vimentin or p53 followed by western blotting analysis of p53 in SW-620/5-FU-R cells treated with vehicle and/or 4DPG (300 nM) for 48 h. G Cytosolic (left panel) and nuclear (right panel) extracts of SW-620/5-FU-R cells treated with vehicle and/or 4DPG (300 nM) for 48 h showing protein expression of Vimentin and p53. Tubulin and lamin expression was considered as endogenous loading controls for cytosolic and nuclear fractions, respectively.
We followed the standard protocol with some modifications for immunocytochemistry[56],[58]. In brief, cells, at a density of 4 × 10^5 cells/well, were seeded over the sterile coverslips placed in six-well plates. Following the respective treatment, cells were washed thrice with PBS. Next, the cells were fixed with 4% paraformaldehyde (pH = 7.4) for 15 min, permeabilized with 0.3% Triton X-100 for 10 min, and then blocked with 1% goat serum for 30 min. Consequently, the cells were incubated with anti-Vimentin antibody overnight at 4 °C, at a dilution of 1:100, followed by washing with PBST and further incubation with secondary anti-rabbit Alexa Fluor 488 (1:750 dilution). After subsequent washing and mounting, the images were captured at ×20 magnification under Floid Cell Imaging Station (Invitrogen).

[2] = system: HCT-116/5-FU-R cells; test: Matrigel invasion assay; assay type: cell-based; details: SiChk2 and PV1019 pre-treated conditions, 48 h
Text: as §1
as §2, with “G Cytosolic (left panel) and nuclear (right panel) extracts of SW-620/5-FU-R cells treated with vehicle and/or 4DPG (300 nM) for 48 h showing protein expression of Vimentin and p53. Tubulin and lamin expression was considered as endogenous loading controls for cytosolic and nuclear fractions, respectively.” left out

[3] = Pharmacokinetic study, single i.v. dose; assay type: in vivo; details: 5 mg/kg i.v. single dose, Balb/c mice
Procedure: Subsequently, to evaluate the exposure of 4DPG in healthy animals, we performed PK analysis in Balb/c mice by administering a single dose (5 mg/kg) of the compound intravenously.
The PK studies were performed following our standardized procedure with minor modifications. To determine the PK profile of 4DPG, healthy male Balb/c mice (body weight 25–30 g each) were employed in the study. Six animals were enrolled for each sampling time point and a total of 11 time points (0.083, 0.25, 0.5, 1, 2, 4, 6, 8, 12, 16, and 24 h) were involved in the study. Control group of mice were administered with saline and test groups of animals received a single dose of 4DPG (5 mg/kg, body weight) intravenously. After the successful injections of the molecule, 100 µL of plasma was collected from each animal enrolled at the above sampling time points and the plasma proteins were precipitated with 400 µL of acetonitrile. Following extraction into the solvent and subsequent filtration, the compound was analyzed using a 6410 triple-quadrupole LC–MS/MS system (Agilent Technologies, USA). Individual samples collected at each time point were quantified through single ion monitoring (SIM) by comparing with the standard calibration curve prepared using Agilent Mass Hunter software (version B.04.00) (detailed description is provided in Supplementary information file). Essential PK parameters such as half-life (t1/2), C initial (C0), area under the curve (AUC0–∞), volume of distribution (Vd), clearance (Cl), and mean residence time (MRT) were calculated utilizing noncompartmental pharmacokinetic data analysis.

[4] = system: tumor tissues of orthotopic rat colorectal carcinoma; test: Western blotting of tumor tissues; assay type: in vivo, Wistar rats; details: 4DPG-treated group vs saline
Procedure: We adhered to the previously published protocol for western blotting. To sum up, cells were exposed to the respective treatments (mentioned in figure legends). Post-treatment, cells were lysed with cell lysis buffer, and cell lysates were collected after centrifugation. Bradford assay was performed to quantify the protein concentration. Equal amount of protein was taken from each sample to carry out the western blot analysis. SDS-PAGE was employed to separate the proteins that were later transferred onto PVDF membranes (Millipore, Billerica, MA). Next, the membranes were blocked with 5% skim milk and subsequently incubated with the specific primary antibodies (1:1000 dilution), either for 3 h at room temperature or overnight at 4 °C. Later, the blots were washed thoroughly with TBST and probed with the respective secondary antibodies (1:2000 dilution) coupled with horseradish peroxidase for 1 h. Following thorough washing, the membranes were visualized using enhanced chemiluminescence reagent (Millipore) and captured onto Biomax light film (The Eastman Kodak Co., Rochester, NY).

COc1cc([C@@H]2c3cc4c(cc3C[C@H]3COC(=O)[C@@H]32)OCO4)cc(OC)c1O[C@@H]1O[C@H](CO)[C@@H](O)[C@H](O)[C@H]1O [4DPG, 4′-demethyl-deoxypodophyllotoxin glucoside]
Vimentin expression level (immunocytochemistry) ([1]; 300 nM): considerable decrease
inhibition of Vimentin level by 4DPG ([1]; PV1019 plus 4DPG): negligible inhibition
inhibition of Vimentin level by 4DPG ([1]; SiChk2 plus 4DPG (Chk2-silenced)): mild inhibition
Vimentin level (immunocytochemistry) ([1]; scramble plus 4DPG): substantial reduction
effect of 4DPG to block invasion abilities [2]: distinctly reduced
Area under curve (AUC0-t) [3]: 10068.884 ng·h/mL
Area under curve (AUC0-∞) [3]: 10104.05 ng·h/mL and 10104.053 ng·h/mL
Clearance (Cl) [3]: 8.25 mL/min/kg
Half-life (t1/2) [3]: 39.2 min
Mean residence time (MRT) [3]: 18.4 min
Volume of distribution (Vd) [3]: 0.466 L/kg
C initial (C0) ([3]; plasma): 10165.18 ng/mL
activation of p53 in tumor tissues [4]: 5.82 fold
activation of p-Chk2 (Thr68) in tumor tissues [4]: 3.54 fold
downmodulation of Vimentin in tumor tissues [4]: 8.3 fold
downmodulation of p-Vimentin (ser38) in tumor tissues [4]: 18.2 fold
